Columns and labels:
RPMI-8226 = assay: panel of 60 human tumor cell lines, growth inhibition (Leukemia); details: RPMI-8226; for GI50 / TGI: NCI five dose
MALME-3M = assay: panel of 60 human tumor cell lines, growth inhibition (Melanoma); details: MALME-3M; for GI50 / TGI: NCI five dose
HCT-15 [1] = test system: HCT-15
HCT-15 [2] = assay: panel of 60 human tumor cell lines, growth inhibition (Colon Cancer); details: HCT-15; for GI50 / TGI: NCI five dose

C=C1C(=O)O[C@H]2[C@H]1CC/C(COC(=O)NCCO)=C\CC[C@@]1(C)O[C@@H]21 [JVM 2-50]
CC50 (U251): > 100 µM
CC50 (HS 578T): > 100 µM
CC50 (SK-MEL-2): 94.4 µM
CC50 (OVCAR-8): > 100 µM
CC50 (NCI-H322M): > 100 µM
CC50 (TK-10): 52.3 µM
CC50 (M14): 88.3 µM
CC50 (SF-268): 99.1 µM
CC50 (CAKI-1): 73.8 µM
CC50 (SNB-75): > 100 µM
Percent Growth (RPMI-8226; Log10 Concentration −4.0): −49%
Percent Growth (RPMI-8226; Log10 Concentration −5.0): 33%
Percent Growth (RPMI-8226; Log10 Concentration −6.0): 93%
Percent Growth (RPMI-8226; Log10 Concentration −7.0): 97%
Percent Growth (RPMI-8226; Log10 Concentration −8.0): 98%
GI50 (RPMI-8226): 5.14 µM
TGI (RPMI-8226): 2.51E−5
CC50 (NCI-H460): > 100 µM
Percent Growth (MALME-3M; Log10 Concentration −4.0): −67%
Percent Growth (MALME-3M; Log10 Concentration −5.0): 58%
Percent Growth (MALME-3M; Log10 Concentration −6.0): 110%
Percent Growth (MALME-3M; Log10 Concentration −7.0): 111%
Percent Growth (MALME-3M; Log10 Concentration −8.0): 107%
GI50 (MALME-3M): 11.5 µM
TGI (MALME-3M): 2.91E−5
CC50 (SW-620): 74 µM
CC50 (CCRF-CEM): > 100 µM
CC50 (BT-549): 42.9 µM
CC50 (MOLT-4): > 100 µM
CC50 (NCI-H226): > 100 µM
CC50 (HCT-15 [1]): 57.5 µM
CC50 (HT29): ≥ 100 µM
CC50 (PC-3): > 100 µM
CC50 (A498): > 100 µM
CC50 (SN12C): > 100 µM
CC50 (A549/ATCC): > 100 µM
CC50 (IGROV1): > 100 µM
Percent Growth (HCT-15 [2]; Log10 Concentration −4.0): −71%
Percent Growth (HCT-15 [2]; Log10 Concentration −5.0): 16%
Percent Growth (HCT-15 [2]; Log10 Concentration −6.0): 94%
Percent Growth (HCT-15 [2]; Log10 Concentration −7.0): 95%
Percent Growth (HCT-15 [2]; Log10 Concentration −8.0): 93%
GI50 (HCT-15 [2]): 3.7 µM
TGI (HCT-15 [2]): 1.54E−5
CC50 (NCI-H23): 94.3 µM
CC50 (SR): > 100 µM
CC50 (UACC-257): 63.5 µM
CC50 (UACC-62): 58.3 µM
CC50 (UO-31): 77.1 µM
CC50 (SK-MEL-28): 79.4 µM
CC50 (OVCAR-5): 92.4 µM
CC50 (HOP-92): 42.3 µM
CC50 (786-0): 66.4 µM
CC50 (MDA-MB-435): 52 µM
CC50 (DU-145): 52.8 µM
CC50 (SF-295): > 100 µM
CC50 (SK-MEL-5): > 100 µM
CC50 (MCF7): 75.5 µM
CC50 (SK-OV-3): > 100 µM
CC50 (NCI-H522): 9.13 µM
CC50 (RXF 393): 62.5 µM
CC50 (HOP-62): > 100 µM

C=C1C(=O)O[C@H]2[C@H]1CC/C(COC(=O)NC)=C\CC[C@@]1(C)O[C@@H]21 [JVM 2-57]
CC50 (U251): 53 µM
CC50 (HS 578T): > 100 µM
CC50 (SK-MEL-2): 69 µM
CC50 (OVCAR-8): 57.2 µM
CC50 (NCI-H322M): > 100 µM
CC50 (TK-10): 31.8 µM
CC50 (M14): 66.7 µM
CC50 (SF-268): 68.6 µM
CC50 (CAKI-1): 36.6 µM
CC50 (SNB-75): > 100 µM
Percent Growth (RPMI-8226; Log10 Concentration −4.0): −53%
Percent Growth (RPMI-8226; Log10 Concentration −5.0): 7%
Percent Growth (RPMI-8226; Log10 Concentration −6.0): 87%
Percent Growth (RPMI-8226; Log10 Concentration −7.0): 94%
Percent Growth (RPMI-8226; Log10 Concentration −8.0): 101%
GI50 (RPMI-8226): 2.89 µM
TGI (RPMI-8226): 1.30E−5
CC50 (NCI-H460): 78 µM
Percent Growth (MALME-3M; Log10 Concentration −4.0): −76%
Percent Growth (MALME-3M; Log10 Concentration −5.0): 25%
Percent Growth (MALME-3M; Log10 Concentration −6.0): 94%
Percent Growth (MALME-3M; Log10 Concentration −7.0): 95%
Percent Growth (MALME-3M; Log10 Concentration −8.0): 95%
GI50 (MALME-3M): 4.38 µM
TGI (MALME-3M): 1.77E−5
CC50 (SW-620): 44.7 µM
CC50 (CCRF-CEM): 76.3 µM
CC50 (BT-549): 33.1 µM
CC50 (MOLT-4): > 100 µM
CC50 (NCI-H226): 96.1 µM
CC50 (HCT-15 [1]): 41.8 µM
CC50 (HT29): 57 µM
CC50 (PC-3): 71.1 µM
CC50 (A498): 47.4 µM
CC50 (SN12C): 78.1 µM
CC50 (A549/ATCC): 57.7 µM
CC50 (IGROV1): 77 µM
Percent Growth (HCT-15 [2]; Log10 Concentration −4.0): −83%
Percent Growth (HCT-15 [2]; Log10 Concentration −5.0): 4%
Percent Growth (HCT-15 [2]; Log10 Concentration −6.0): 82%
Percent Growth (HCT-15 [2]; Log10 Concentration −7.0): 97%
Percent Growth (HCT-15 [2]; Log10 Concentration −8.0): 98%
GI50 (HCT-15 [2]): 2.58 µM
TGI (HCT-15 [2]): 1.12E−5
CC50 (NCI-H23): 66.1 µM
CC50 (SR): > 100 µM
CC50 (UACC-257): 44.1 µM
CC50 (UACC-62): 50.5 µM
CC50 (UO-31): 36.9 µM
CC50 (SK-MEL-28): 52 µM
CC50 (OVCAR-5): 44.3 µM
CC50 (HOP-92): 29.7 µM
CC50 (786-0): 49.6 µM
CC50 (MDA-MB-435): 53.1 µM
CC50 (DU-145): 39.3 µM
CC50 (SF-295): > 100 µM
CC50 (SK-MEL-5): 66 µM
CC50 (MCF7): 47.7 µM
CC50 (SK-OV-3): > 100 µM
CC50 (NCI-H522): 6.85 µM
CC50 (RXF 393): 44.1 µM
CC50 (HOP-62): 59.5 µM
